Legend:
[1] = system: Human osteosarcoma cells (U2OS); test: Uptake and sub-cellular localization by confocal microscopy; type: cell-based; conditions: 10 μM, 10 minutes incubation, no fixation
Method: In order to observe the ability of the di-guanidine and tetra-guanidine compounds to transport small molecules, they were coupled to FITC, which emits light at 514 nm after laser excitation at 492 nm. Human osteosarcoma cells (U2OS) were cultured on glass coverslips and incubated for 10 minutes with each compound to a final concentration of 10 μM. They were compared to FITC conjugated to TAT and FITC alone. After incubation, cells were rinsed in PBS and mounted, without fixation, onto slides and visualized by confocal microscopy. […] Cells were visualized under higher magnification (63×), to assess sub-cellular localization of the FITC.

U2OS cells = test: Delivery of FITC, FACS analysis of live cells; type: cell-based, human; conditions: 10 µM, 15 minutes
Method: The efficiency of delivery of FITC by these guanidine carriers was tested by FACS analysis. U2OS cells were treated with at a concentration of 10 µM with each of the compounds indicated for 15 minutes, and then harvested by trypsinization, and washed in PBS. The live cells were then subjected to FACS analysis.

[2] = system: CD3+ cells from peripheral blood mononuclear cells; test: Delivery of FITC to primary suspension cells, FACS analysis; type: cell-based; conditions: primary human CD3+ cells, 10 µM, 15 minutes
Method: To determine whether SMCs deliver small molecules to primary human cells, CD3+ cells were isolated by MACS separation from freshly harvested peripheral blood mononuclear cells. This purified cell population was treated with 10 µM of each compound for 15 minutes. Cells were then washed in PBS and analyzed by FACS.

NIH3T3 fibroblasts [3] = test: Uptake of Geminin-SMC conjugate, anti-Geminin immunofluorescence; type: cell-based, mouse; conditions: 10 μM, one hour
Method: (§1) A) NIH3T3 fibroblasts were incubated for one hour with 10 μM recombinant His6-Geminin or 10 μM Geminin-SMC conjugate. Cells were fixed, permeabilised and stained with a polyclonal rabbit anti-Geminin primary, a FITC-conjugated anti-rabbit secondary and counterstained with DAPI. […] B) NIH3T3 fibroblasts were driven into quiescence by density-dependent growth arrest and after 5 days were released back into the cell cycle by subculturing into fresh growth medium. 8 hours after release from quiescence 10 μM of Geminin-SMC was added to the cells. At 21 hours following release cells were pulse-labelled for one hour with 50 μM BrdU. Subsequently cells were fixed, permeabilised and stained with FITC-conjugated anti-BrdU and counterstained with propidium iodide. In a control population 68% of cells were able to re-enter the cell cycle following release whilst in the presence of Geminin-SMC replication dropped by 47% respectively.

NIH3T3 fibroblasts [4] = test: S-phase assay (cellular DNA synthesis, BrdU incorporation); type: cell-based, mouse
Method: as §1
Essentially the system is set up as follows: Mouse or human fibroblasts are arrested in quiescence (G0) by contact inhibition.
The quiescent fibroblasts are then subcultured at lower density to release fibroblasts from G0. Re-entry into the DNA synthesis phase (S phase) occurs 21 hours after the release. Pre-replicative complexes (pre-RCs) essential for unwinding of the DNA helix prior to DNA synthesis are assembled at replication origins 16-18 hrs after the release from G0.
One sample of cells is untreated and the other is treated by exposure to an SMC-conjugate according to the present invention. Treatment takes place before pre-RC assembly, preferably at 5-10 hours after release from G0.
The ability of cells to start S phase is monitored with a BrdU pulse at 21 hours. BrdU becomes incorporated into DNA during DNA synthesis and is thus a marker for entry into S phase. BrdU incorporation is then assayed and treated cells are compared with non-treated cells.
For synchronisation in G0, NIH3T3 fibroblasts are seeded at high density and driven into density-dependent growth arrest. […]
DNA synthesis is monitored by pulse labelling cells 21 h after release from G0 for 1 h with 50 μM BrdU. […]
The percentage of cells undergoing DNA replication is determined from images obtained by confocal fluorescence microscopy on a Leica TCS SP confocal microscope. […]
Plasmids expressing […] are microinjected into the nuclei of NIH3T3 fibroblasts at the treatment time 8 hours after release from density-dependent growth arrest in G0. The ability of cells to initiate DNA replication was assessed by pulse labelling cells 19 hours after release from G0 for 1 hour with bromodeoxyuridine (BrdU). Expression of E1̂E4 protein and incorporation of BrdU was monitored by confocal immunofluorescence microscopy. […]

How did the “sub-cellular localization of the FITC at higher magnification (63×)” value [1] turn out when `N=C(N)NCCOc1cccc(-c2ccc(CNC(=S)Nc3ccc4c(c3)C(=O)OC43c4ccc(O)cc4Oc4cc(O)ccc43)c(OCCNC(=N)N)c2OCCNC(=N)N)c1OCCNC(=N)N` [tetra-guanidine-FITC, [2,3,2′,3′-Tetra(2-guanidino-ethyloxy)-biphenyl-4-ylmethyl]-thioureido-fluorescein] was run?
The value was “intense nuclear fluorescence”.

And the “cells fluorescent above the background auto-fluorescence” value (U2OS cells)?
The value was 80%.

And the cells fluorescent [2]?
Its cells fluorescent is 62%.

Which results are given for `N=C(N)NCCOc1c(CNC(=S)Nc2ccc3c(c2)C(=O)OC32c3ccc(O)cc3Oc3cc(O)ccc32)ccc(-c2ccccc2)c1OCCNC(=N)N` [di-guanidine-FITC, 2-[2,3-bis(2-guanidino-ethyloxy)-biphenyl-4-ylmethyl]-thioureido-fluorescein]?
sub-cellular localization of the FITC at higher magnification (63×) [1]: both nuclear and cytoplasmic fluorescence; cells fluorescent above the background auto-fluorescence (U2OS cells): 80%; cells fluorescent [2]: 88%

B1: Geminin-SMC: conjugate of a compound of formula Ic with the pre-RC assembly repressor protein Geminin (209 aa) (conjugate, UniProt O75496 1-209, looked up)
chain: MNPSMKQKQEEIKENIKNSSVPRRTLKMIQPSASGSLVGRENELSAGLSKRKHRNDHLTSTTSSPGVIVPESSENKNLGGVTQESFDLMIKENPSSQYWKEVAEKRRKALYEALKENEKLHKEIEQKDNEIARLKKENKELAEVAEHVQYMAELIERLNGEPLDNFESLDNQEFDSEEETVEDSLVEDSEIGTCAEGTVSSSTDAKPCI
modifications: full-length conjugated to SMC compound of formula Ic
Which “FITC staining (anti-Geminin) within the cells” value (NIH3T3 fibroblasts [3]) does the source give for B1 here?
The value was “strong FITC staining”.

And the “drop of replication (BrdU incorporation)” value (NIH3T3 fibroblasts [4]; 10 μM added 8 hours after release from quiescence, BrdU pulse at 21 hours, control population 68% re-entered cell cycle)?
The value was 47%.

What about the “number of cells entering S phase” value (NIH3T3 fibroblasts [4]; 10 fM to 10 μM, treatment 8 hours after G0 release) of the same molecule?
The value was “dramatic reduction”.

What about the “DNA synthesis as monitored by S-phase assay” value (NIH3T3 fibroblasts [4]; treatment 8 hours after G0 release, BrdU pulse at 21 hours, concentration range per example (10 fM to 30 μM)) of the same molecule?
Its value is “inhibits DNA synthesis”.

What about the “uptake of SMC-conjugate into the cells” value (NIH3T3 fibroblasts [4]; treatment 8 hours after G0 release, concentration range per example (10 fM to 30 μM)) of the same molecule?
Its value is “efficiently taken into the cells”.

B2: His6-Geminin: recombinant His6-Geminin, unconjugated form of Geminin (protein, UniProt O75496 1-209, looked up)
Geminin: MNPSMKQKQEEIKENIKNSSVPRRTLKMIQPSASGSLVGRENELSAGLSKRKHRNDHLTSTTSSPGVIVPESSENKNLGGVTQESFDLMIKENPSSQYWKEVAEKRRKALYEALKENEKLHKEIEQKDNEIARLKKENKELAEVAEHVQYMAELIERLNGEPLDNFESLDNQEFDSEEETVEDSLVEDSEIGTCAEGTVSSSTDAKPCI
modifications: His6 tag
B2 was tested. Which “FITC staining (anti-Geminin) within the cells” value (NIH3T3 fibroblasts [3]) did it give?
The value was “no FITC staining”.

— patent publication US20080139493A1, “Bi- or Tetra-Guanidino-Biphenyl Compounds as Small Molecule Carriers” (priority 2004, published 2008)
